Common to all, as to type: cell-based, human
One experiment relates to BAX protein. Briefly: Western blot of BAX in myometrial strips stimulated with LPS. The method, then:
(§1) Myometrial biopsies obtained from women with uncomplicated pregnancies were immediately transferred in sterile Dubelcco's Modified Eagle Medium (DMEM) and washed twice with sterile Phosphate Buffer Saline (PBS). Biopsies were cut into small strips, each being placed in a 24-well plate containing 2 ml of culture medium DMEM, without the use of antibiotics. Strips were then incubated at 37° C. with 5% CO2 for 48 h in order to allow cytokine levels to return to basal values (Fortunato S J, et al. Am J Reprod Immunol 1994; 32: 184-187). […]
(§2) Snap-frozen myometrial tissues were homogenized with Ultra-Turrax in homogenization buffer [10 mM Tris-HCl (pH 7.4), 1 mM EDTA, […] leupeptine, 2 mM Pefabloc]. After an initial centrifugation at 500×g for 15 min at 4° C., total protein supernatant content was determined by the Bradford method with BSA as standard. […] Immunoreactive proteins were detected by chemiluminescence (ECL™ detection reagents, RPN2105, Amersham, USA) and exposure to a X-ray film (Hyperfilm™, Amersham Bioscience, USA). The intensities of the bands were analyzed densitometrically using the NIH Image 1.62 program and normalized with intensity of bands obtained with monoclonal antibody to Glyceraldehyde 3-Phosphate Dehydrogenase (GAPDH) used as protein loading control. Results are expressed as the mean±s.e.m. in Arbitrary Density Unit (A.D.U).
(Immunoblotting shows a protein as a band on a membrane.)

The subject of another experiment is IL6. Briefly: Cytometric Bead Array, IL6 in supernatants of myometrial strips. On the procedure:
(§3) Myometrial biopsies obtained from women with uncomplicated pregnancies were immediately transferred in sterile Dubelcco's Modified Eagle Medium (DMEM) and washed twice with sterile Phosphate Buffer Saline (PBS). Biopsies were cut into small strips, each being placed in a 24-well plate containing 2 ml of culture medium DMEM, without the use of antibiotics. Strips were then incubated at 37° C. with 5% CO2 for 48 h in order to allow cytokine levels to return to basal values (Fortunato S J, et al. Am J Reprod Immunol 1994; 32: 184-187).
(§4) In order to reproduce with LPS (Escherichia coli 055:B5) the findings on myometrial samples obtained from women with chorioamnionitis, myometrial strips were incubated with three different concentrations of LPS (50 ng/ml, 1 μg/ml and 10 μg/ml) at three different times (8 h, 24 h, 48 h). […]
(§5) Cytokines measurements were determined by Cytometric Bead Array (CBA; Bender MedSystems). Supernatants of 5 myometrial strips were incubated with labeled capture beads and detection reagent for 3 h in the dark at room temperature, and analyzed with a flow cytometer (FACSCalibur; BD Biosciences) by using the respective CBA Analysis software (BD Biosciences) and Bender MedSystems software. Cytokine standards for quantification (pg/mL) as well as the blanks were handled in the same manner as the samples. […]

Experiment [1] relates to cleaved caspase-3 protein. The experiment can be described thus: Western blot of cleaved caspase-3 in myometrial strips stimulated with LPS. On the procedure:
as §1, §2

The subject of the next experiment is caspase-3 transcripts. Briefly: Real time quantitative RT-PCR of caspase-3 transcripts in myometrial tissue. To be noted: LPS alone 2.08±0.63. The method, then:
as §3
In order to reproduce with LPS (Escherichia coli 055:B5) the findings on myometrial samples obtained from women with chorioamnionitis, myometrial strips were incubated with three different concentrations of LPS (50 ng/ml, 1 μg/ml and 10 μg/ml) at three different times (8 h, 24 h, 48 h). In a second set of experiments, in order to assess the role of TNF in LPS-induced apoptosis in myometrial tissue, the strips were incubated with LPS 10 μg/ml for 48 h with or without anti TNF antibodies (0.6 μg/ml) (Human TNF alpha/TNFSF1A antibody, R&D systems Europe, Lille, France, the concentration of the antibody used was chosen based on the manufacturer's recommendations). […]
Total RNA was prepared from 5 myometrial tissues obtained from 5 different women, using Trizol solution (Life Technologies, Groningen, The Netherlands) according to the manufacturer's instructions. […] Real time quantitative PCR analyses were performed using 25 ng of reverse transcribed total RNA with 200 nM of both sense and anti sense primers in a final volume of 25 μl using the SYBR Green PCR jumpstart reagent (Sigma, Saint Louis, Mo., USA) in an iCycler iQ real time detection system instrument (Bio-Rad, Marnes-la-Coquette, France). PCR products were also analyzed on edithium bromide stained agarose gel to ensure that a single amplicon of the expected size was indeed obtained. […]

Another experiment has as its system IL8. The experiment can be described thus: Cytometric Bead Array, IL8 in supernatants of myometrial strips. On the procedure: as §3, §4, §5
The next experiment deals with BCL2 protein. Briefly: Western blot of BCL2 in myometrial strips stimulated with LPS. The method, then: as §1, §2
Where [2] appears, read: Compound A 10^-7, 10^-6, 10^-5 M with LPS 10 μg/ml 48 h, ANOVA P<0.01, FIG. 4.
[3] abbreviates: tissues not stimulated with LPS (data not shown).

Consider `CCOC(=O)c1ccc([C@H]2CC[C@H](NC[C@H](O)COc3ccc(O)c(NS(C)(=O)=O)c3)CC2)cc1.Cl` [Compound A, Ethyl-4-{trans-4-[((2S)-2-hydroxy-3-{4-hydroxy-3[(methylsulfonyl)-amino]phenoxy}propyl)amino]cyclohexyl}benzoate hydrochloride], for which the “antagonism of LPS-induced BAX protein up-regulation” value with BAX protein (setting [2]) is given as “antagonized in a concentration dependant manner”. In the experiment on BAX protein (setting [3]), the “effect by itself on BAX expression” value is on record as “no effect”. In addition, the “effect on LPS-induced IL6” value in the experiment with IL6 (Compound A with LPS, concentration dependent, not statistically significant, FIG. 5) was “decreased”. The “effect by itself on IL6 release” value in the experiment with IL6 (setting [3]) was “not effect”. In addition, the “antagonism of LPS-induced changes in cleaved caspase-3 expression” value in experiment [1] (Compound A 10^-7, 10^-6, 10^-5 M with LPS 10 μg/ml 48 h, concentration dependent, ANOVA P<0.001, FIG. 3) is reported as “significantly antagonize”. Further, the “effect by itself on cleaved caspase-3 expression” value in experiment [1] (setting [3]) is recorded as “no effect”. In addition, the “caspase-3 transcripts, fold increase normalized to GAPDH compared with controls” value was 0.93±0.41 fold in the experiment on caspase-3 transcripts (LPS with Compound A 10^-5 M), 0.84±0.53 fold with caspase-3 transcripts (LPS with Compound A 10^-6 M) and 1.17±0.81 fold in the experiment with caspase-3 transcripts (LPS with Compound A 10^-7 M). Besides, the “effect on LPS-induced IL8” value in the experiment on IL8 (Compound A with LPS, concentration dependent, ANOVA P=0.01, FIG. 5) is “decreased”. Besides, in the experiment with IL8 (setting [3]), the “effect by itself on IL8 release” value is “not effect”. Moreover, the “antagonism of LPS-induced BCL2 protein down-regulation” value in the experiment on BCL2 protein (setting [2]) is “antagonized in a concentration dependant manner”. Also, the “effect by itself on BCL2 expression” value in the experiment with BCL2 protein (setting [3]) is reported as “no effect”.

The record behind these values is US9161925B2, “Therapeutic uses of beta-3 adrenergic receptor agonist derivatives in particular to modulate apoptosis” (SANOFI, priority 2007, dated 2015).
